Earlier results on one substance are cited in US5922313A, “Antibacterial composition” (Bio-Safe Enterprises, Inc., priority 1998, dated 1999).

Regarding nonylphenol thoxylate, the virus killing entry in the data set on hepatitis B was “effective in killing hepatitis B and HIV viruses”; in the data set on HIV, “effective in killing hepatitis B and HIV viruses”.
